PubChem BioAssay AID1963440 (Molecular Pharmacology Branch, DTP, NCI, 2024)
pIC50: −log10 of the molar value. Values joined by “and” are separate entries in the source; they are usually repeats but may differ in a detail not shown here. Equal values may be shown once.

System: NCI-H1417 complex spheroids, growth % test/control
Assay: Anticancer human tumor NCI-H1417 cell line growth inhibition [Asc];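 also: spheroids exposed to compounds for 7 days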;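 as to viability, T/C: 100% = DMSO vehicle control wells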
Conditions: for viability, T/C: stronger effect = lower value
Method: Multicellular complex tumor spheroid response to apoptosis pathway targeting inhibitors Alrizomadlin, Pelcitoclax, and Dasminapant in combination with a variety of drugs and investigational agents in selected tumor cell lines
The MDM2 inhibitor alrizomadlin, the Bcl-2/Bcl-xL inhibitor pelcitoclax, and the IAPs inhibitor dasminapant were evaluated both individually and in combination with standard of care and investigational anticancer small molecules within a complex spheroid model of solid tumors. . Complex spheroids include a stromal component modeled by human endothelial cells (HUVEC) and fibroblasts modeled by human mesenchymal stem cells (MSCs). The concentration ranges selected for each drug and investigational agent were based upon clinically achievable concentrations if the clinical Cmax of the agent was known.
Compounds. The drugs and investigational agents: alrizomadlin (APG-115; NSC831270), pelcitoclax (APG-1252; NSC835773), dasminapant (APG-1387;NSC834197), TAK-243 (NSC785004), copanlisib (NSC809693), olaparib (NSC753686), talazoparib (NSC767125), cobimetinib (NSC 768068), eltanexor (KPT-8602, NSC 794443), abemaciclib (NSC 768073), sotorasib (NSC818433), adagrasib (NSC 831453), MRTX-1133 (NSC 836407), Iadademestat (ORY1001, NSC 806812), and RMC-4630 (NSC839698), were obtained from the NCI Developmental Therapeutics Program Chemical Repository. The FDA-approved anticancer drug set is available from the Developmental Therapeutics Program at https://dtp.cancer.gov/organization/dscb/obtaining/available plates.htm. […] The stock solutions were prepared in dimethyl sulfoxide (DMSO, Sigma-Aldrich, St. Louis, MO, cat. D2650) at 800-fold the tested concentration and stored at -70 degrees C prior to their use. All drugs and investigational agents were tested over a range starting from a high concentration at or near the clinical Cmax and decreasing in half-log increments. If the clinical Cmax for an agent had not been determined, the highest concentration tested was 10 microM.
The patient-derived cancer (PDC) cell lines include five colon adenocarcinomas: 186277-243-T-J2-PDC, 616215-338-R-J1-PDC, 439559-082-T-J2-PDC, 463943-066-T-J2-PDC, and 519858-162-T-J1-PDC; three pancreatic carcinomas: 323965-272-R-J2-PDC, 521955-158-R6-J3-PDC, and 521955-158-R2-J5-PDC; two uterine sarcomas: 327498-152-R-J2-PDC and 993429-296-R-J1-PDC; two rhabdomyosarcomas: 755483-174-R-J1-PDC and 772245-204-R-J1-PDC; two soft tissue sarcomas: 126254-015-R-J1-PDC and 494315-158-R-J1-PDC; two malignant fibrous histiocytomas: 317291-083-R-J1-PDC and 596521-263-R-J1-PDC; two breast carcinomas: 171881-019-R-J1-PDC and 885512-296-R-J2-PDC; and one ovarian carcinoma: 6556581-035-R-J-PDC were obtained from the NCI PDMR, (https://pdmr.cancer.gov). The established cell lines HSSY-2 synovial sarcoma (RRID:CVCL 8719), SYO-1 synovial sarcoma (RRID:CVCL_7146), MPNST malignant peripheral neural sheath tumor were obtained from the Sloan Kettering Institute. The following established cell lines were purchased from the American Type Culture Collection (ATCC, Manassas, VA), Sor the received from the NCI repository:, PANC-1 pancreatic carcinoma (CRL-1469, RRID:CVCL_0480), OVCAR-5 ovarian carcinoma (RRID:CVCL_1628), OVCAR-8 ovarian carcinoma (RRID:CVCL_1629), , MCF-7 breast carcinoma (CRL-12584, RRID:CVCL_0031), MDA-MB-231 breast carcinoma (CRL-12532, RRID:CVCL_0062), NCI-H1876 small cell lung carcinoma (CRL-5902, RRID:CVCL_1503), NCI-H510A small cell lung carcinoma (HTB-184, RRID:CVCL_1565), NCI-H1417 (CRL-5869, RRID:CVCL_1469), and NCI-H196 small cell lung carcinoma (CRL-5823, RRID:CVCL_1509). Dr. Peter Houghton (Greehey Children's Cancer Research Institute, University of Texas Health Science Center, San Antonio, TX) provided Rh-18 rhabdomyosarcoma (RRID:CVCL_1659). Pooled donor human umbilical vein endothelial cells (HUVEC, Lonza, cat. CC-2519) and human mesenchymal stem cells (hMSC, Lonza, cat. PT-2501) were purchased from Lonza (Walkersville, MD).
Cell Culture. […]

[1] = curve of first compound, second compound 0.1 µM
[2] = curve of first compound, second compound 0.316 µM
[3] = curve of first compound, second compound 1 µM
[4] = second compound 0.1 µM, first compound 0.000316 µM
[5] = second compound 0.1 µM, first compound 0.001 µM
[6] = second compound 0.1 µM, first compound 0.00316 µM
[7] = second compound 0.1 µM, first compound 0.01 µM
[8] = second compound 0.1 µM, first compound 0.0316 µM
[9] = second compound 0.1 µM, first compound 0.1 µM
[10] = second compound 0.316 µM, first compound 0.000316 µM
[11] = second compound 0.316 µM, first compound 0.001 µM
[12] = second compound 0.316 µM, first compound 0.00316 µM
[13] = second compound 0.316 µM, first compound 0.01 µM
[14] = second compound 0.316 µM, first compound 0.0316 µM
[15] = second compound 0.316 µM, first compound 0.1 µM
[16] = second compound 1 µM, first compound 0.000316 µM
[17] = second compound 1 µM, first compound 0.001 µM
[18] = second compound 1 µM, first compound 0.00316 µM
[19] = second compound 1 µM, first compound 0.01 µM
[20] = second compound 1 µM, first compound 0.0316 µM
[21] = second compound 1 µM, first compound 0.1 µM

## Cn1ncnc1[C@H]1c2n[nH]c(=O)c3cc(F)cc(c23)N[C@@H]1c1ccc(F)cc1 + CNC(C)C(=O)NC1CN(S(=O)(=O)c2cccc(S(=O)(=O)N3CCC4CCC(C(=O)NC(c5ccccc5)c5ccccc5)N4C(=O)C(NC(=O)C(C)NC)C3)c2)CCC2CCC(C(=O)NC(c3ccccc3)c3ccccc3)N2C1=O
Curve of first compound, second compound 0.01 µM
  pIC50: < 7.00
Curve of first compound, second compound 0.0316 µM
  pIC50: < 7.00
[1]
  pIC50: < 7.00
[2]
  pIC50: < 7.00
[3]
  pIC50: < 7.00
Second compound 0.01 µM, first compound 0.000316 µM
  viability, T/C: 110%
Second compound 0.01 µM, first compound 0.001 µM
  viability, T/C: 115%
Second compound 0.01 µM, first compound 0.00316 µM
  viability, T/C: 96.8%
Second compound 0.01 µM, first compound 0.01 µM
  viability, T/C: 81.1%
Second compound 0.01 µM, first compound 0.0316 µM
  viability, T/C: 69.4%
Second compound 0.01 µM, first compound 0.1 µM
  viability, T/C: 85.3%
Second compound 0.0316 µM, first compound 0.000316 µM
  viability, T/C: 104%
Second compound 0.0316 µM, first compound 0.001 µM
  viability, T/C: 98.8%
Second compound 0.0316 µM, first compound 0.00316 µM
  viability, T/C: 94%
Second compound 0.0316 µM, first compound 0.01 µM
  viability, T/C: 87.4%
Second compound 0.0316 µM, first compound 0.0316 µM
  viability, T/C: 69%
Second compound 0.0316 µM, first compound 0.1 µM
  viability, T/C: 80.2%
[4]
  viability, T/C: 95.8%
[5]
  viability, T/C: 93%
[6]
  viability, T/C: 90.9%
[7]
  viability, T/C: 78.3%
[8]
  viability, T/C: 66.9%
[9]
  viability, T/C: 74%
[10]
  viability, T/C: 99.6%
[11]
  viability, T/C: 110%
[12]
  viability, T/C: 102%
[13]
  viability, T/C: 78.5%
[14]
  viability, T/C: 64.3%
[15]
  viability, T/C: 70.1%
[16]
  viability, T/C: 98%
[17]
  viability, T/C: 112%
[18]
  viability, T/C: 95.4%
[19]
  viability, T/C: 81.3%
[20]
  viability, T/C: 80%
[21]
  viability, T/C: 84.4%

## CNC(C)C(=O)NC1CN(S(=O)(=O)c2cccc(S(=O)(=O)N3CCC4CCC(C(=O)NC(c5ccccc5)c5ccccc5)N4C(=O)C(NC(=O)C(C)NC)C3)c2)CCC2CCC(C(=O)NC(c3ccccc3)c3ccccc3)N2C1=O (stereo not drawn)
Compound 0.00316 µM
  viability, T/C: 95% and 113% and 107%
Compound 0.01 µM
  viability, T/C: 105% [middle of 14 runs]
Compound 0.0316 µM
  viability, T/C: 97.8% [middle of 13 runs]
Compound 0.316 µM
  viability, T/C: 96.8% [middle of 14 runs]
Compound 1 µM
  viability, T/C: 97.5% [middle of 14 runs]
Compound alone, run of 10/24/2022
  pIC50: < 6.00
Compound alone, run of 11/15/2022
  pIC50: < 6.00
Curve of compound
  pIC50: < 6.00

## Cn1ncnc1[C@H]1c2n[nH]c(=O)c3cc(F)cc(c23)N[C@@H]1c1ccc(F)cc1 + Cc1c(S(C)(=O)=O)c(-c2cc(F)cc(N3CCN(c4ccc(NS(=O)(=O)c5ccc(NC(CCN6CCC(C(=O)OCCCP(=O)(O)O)CC6)CSc6ccccc6)c(S(=O)(=O)C(F)(F)F)c5)cc4)CC3)c2)c(-c2ccc(Cl)cc2)n1C(C)C
[1]
  pIC50: 8.42
[2]
  pIC50: > 9.50
[3]
  pIC50: > 9.50
Curve of first compound, second compound 3.16 µM
  pIC50: > 9.50
Curve of first compound, second compound 10 µM
  pIC50: > 9.50
[4]
  viability, T/C: 85.9%
[5]
  viability, T/C: 83.2%
[6]
  viability, T/C: 54.8%
[7]
  viability, T/C: 21.9%
[8]
  viability, T/C: 8.37%
[9]
  viability, T/C: 5.48%
[10]
  viability, T/C: 46.7%
[11]
  viability, T/C: 42.7%
[12]
  viability, T/C: 31.7%
[13]
  viability, T/C: 5.82%
[14]
  viability, T/C: 3.42%
[15]
  viability, T/C: 3.86%
[16]
  viability, T/C: 12.5%
[17]
  viability, T/C: 10.4%
[18]
  viability, T/C: 6.37%
[19]
  viability, T/C: 3.13%
[20]
  viability, T/C: 2.7%
[21]
  viability, T/C: 3.15%
Second compound 3.16 µM, first compound 0.000316 µM
  viability, T/C: 3.13%
Second compound 3.16 µM, first compound 0.001 µM
  viability, T/C: 2.74%
Second compound 3.16 µM, first compound 0.00316 µM
  viability, T/C: 2.64%
Second compound 3.16 µM, first compound 0.01 µM
  viability, T/C: 2.34%
Second compound 3.16 µM, first compound 0.0316 µM
  viability, T/C: 3.42%
Second compound 3.16 µM, first compound 0.1 µM
  viability, T/C: 2.69%
Second compound 10 µM, first compound 0.000316 µM
  viability, T/C: 2.53%
Second compound 10 µM, first compound 0.001 µM
  viability, T/C: 2.63%
Second compound 10 µM, first compound 0.00316 µM
  viability, T/C: 2.54%
Second compound 10 µM, first compound 0.01 µM
  viability, T/C: 2.98%
Second compound 10 µM, first compound 0.0316 µM
  viability, T/C: 3.14%
Second compound 10 µM, first compound 0.1 µM
  viability, T/C: 2.76%
